In patent US5821038A, “Yeast with modified permeability” (priority 1994, dated 1998):
pEC50, pIC50: −log10 of the molar value. Read-outs that look alike come from different tables or passages of the source. Numbered stars: 1 amine (or outer) side, 2 acyl side, 3 side chain; on linkers, the order of the positions; unused ones are H or OH. Bridge positions count the residues as written; N and C are the ends. Square brackets hold non-standard residues; d marks the D form. Peptide text beside a SMILES is read from it. I, II: the chains in the order shown. Actinocin(9to1) = Cc1c2oc3c(C)ccc(C(=O)[*:1])c3nc-2c(C(=O)[*:2])c(N)c1=O; NMeV = CN[C@H](C(=O)O)C(C)C; Sar = CNCC(=O)O

Tests used:
Format in all cases: cell-based, Saccharomyces cerevisiae
[1] = system: yCM61 (Δpdr1, Δpdr5, Δsnq2, Δerg6); experiment: Growth inhibition (sensitivity to cytotoxic products) as measure of permeability, strain yCM61 (Example 6)
Excerpt: The strain yCM30 is transformed by the fragment prepared as described in Example 5 in 1a. After elimination of the selectable marker, the strain yCM45 (Δpdr1, Δpdr5, ura3, trp1, MAT α) is obtained. The strain yCM45 is transformed by the fragment prepared as described in Example 5 in 1b. After elimination of the selectable marker, the strain yCM51 (Δpdr1, Δpdr5, Δsnq2, ura3, trp1, MAT α) is obtained. The strain yCM51 is transformed by the fragment prepared as described in Example 1 in 1a. After elimination of the selectable marker, the strain yCM61 (Δpdr1, Δpdr5, Δsnq2, Δerg6, ura3, trp1, MAT α) is obtained.
(§1) The permeability of the yeast strains 5247 and yCM61 is determined by measurement of the sensitivity to different cytotoxic products. The different yeasts are inoculated at an optical density of 0.05 to 700 nm in YNB minimum medium correctly supplemented with bases and amino acids in the presence of an increasing concentration of xenobiotics. The cultures are placed at 28° C. and at 200 rpm for 48 hours. The optical density at 700 nm is then measured. The EC50 is determined as the xenobiotic concentration inhibiting the growth of the yeast by half compared with a control without xenobiotic.

5247 (wt) [2] = experiment: Growth inhibition (sensitivity to cytotoxic products) as measure of permeability, wild-type strain (Examples 2 and 4); details: for pEC50: Saccharomyces cerevisiae; for RATIO: EC50 relative to wild type 5247, 2880 min
Experimental: (§2) The strain of yeast used is the strain S. cerevisiae 5247 (Marcireau, 1992) of the ura3, trp1, MAT α genotype. This strain is transformed according to the method described by Gietz (Gietz, 1992).
(§3) The permeability of the yeasts obtained in Example 1 is determined by measuring the sensitivity to different cytotoxic products. The different yeasts are inoculated at an optical density of 0.05 to 700 nm in YNB minimum medium correctly supplemented with bases and amino acids in the presence of an increasing concentration of xenobiotics. The cultures are placed at 28° C. and at 200 rpm for 48 hours. The optical density at 700 nm is then measured. The EC50 is then determined as the xenobiotic concentration inhibiting the growth of the yeast by half compared with a control without xenobiotic.
(§4) This evaluation was carried out according to the procedure described in Example 2.

yCM65 (Δpdr1, Δerg4) = experiment: Growth inhibition (sensitivity to cytotoxic products) as measure of permeability, strain yCM65; details: for pEC50: Saccharomyces cerevisiae; for RATIO: EC50 5247 (wt) / EC50 yCM65, 2880 min
Experimental: (§5) The strain 5247 is transformed as described in 3) with the fragments prepared as described in 2a), 2b), 2c). After elimination of the selectable marker, the strains yCM30 (Δpdr1, ura3, trp1, MAT α), yCM63 (Δerg4, ura3, trp1, MAT α) and yCM65 (Δpdr1, Δerg4, ura3, trp1, MAT α) are obtained.
as §3

yCM55 (Δerg6) = experiment: Growth inhibition (sensitivity to cytotoxic products) as measure of permeability, strain yCM55; details: for pEC50: Saccharomyces cerevisiae; for RATIO: EC50 5247 (wt) / EC50 yCM55, 2880 min
Experimental: as §3
The strain 5247 is transformed by the fragment prepared as described in 1a. After elimination of the selectable marker, the strain yCM55 (Δerg6,ura3, trp1, MAT α) is obtained.
as §4

5247 (wt) [3] = experiment: Growth inhibition (sensitivity to cytotoxic products) as measure of permeability, wild-type strain (Example 6)
Experimental: as §2, §1

yCM30 (Δpdr1) = experiment: Growth inhibition (sensitivity to cytotoxic products) as measure of permeability, strain yCM30; details: for pEC50: Saccharomyces cerevisiae; for RATIO: EC50 5247 (wt) / EC50 yCM30, 2880 min
Experimental: as §5, §3, §4

yCM57 (Δpdr1, Δerg6) = experiment: Growth inhibition (sensitivity to cytotoxic products) as measure of permeability, strain yCM57; details: for RATIO: EC50 5247 (wt) / EC50 yCM57, 2880 min
Experimental: as §3
The strain yCM30 is transformed by the fragment prepared as described in la. After elimination of the selectable marker, the strain yCM57 (Δpdr1, Δerg6, ura3, trp1, MAT α) is obtained.
as §4

yCM63 (Δerg4) = experiment: Growth inhibition (sensitivity to cytotoxic products) as measure of permeability, strain yCM63; details: for RATIO: EC50 5247 (wt) / EC50 yCM63, 2880 min; for pEC50: Saccharomyces cerevisiae, YNB minimum medium, 28° C., 48 hours, OD 700 nm
Experimental: as §5, §3

[4] = EC50 5247 (wt) / EC50 yCM61, 2880 min
[5] = Saccharomyces cerevisiae, Example 6, strain yCM61 (Δpdr1, Δpdr5, Δsnq2, Δerg6), YNB minimum medium, 28° C., 48 hours, OD 700 nm, read-out: EC50
[6] = Saccharomyces cerevisiae, Example 6, strain 5247 (wt), YNB minimum medium, 28° C., 48 hours, OD 700 nm, read-out: EC50
[7] = strain 5247 (wt), YNB minimum medium, 28° C., 48 hours, OD 700 nm, read-out: EC50
[8] = strain yCM65 (Δpdr1, Δerg4), YNB minimum medium, 28° C., 48 hours, OD 700 nm, read-out: EC50
[9] = strain yCM55 (Δerg6), YNB minimum medium, 28° C., 48 hours, OD 700 nm, read-out: EC50
[10] = strain yCM30 (Δpdr1), YNB minimum medium, 28° C., 48 hours, OD 700 nm, read-out: EC50

C[C@@H]1C[C@@H]([C@H](O)CC2CC(=O)NC(=O)C2)C(=O)[C@@H](C)C1 [Cycloheximide]
RATIO [1, 4]: 500
pEC50 ([1]; Saccharomyces cerevisiae, 48 h): 6.85
pEC50 (5247 (wt) [2]; 48 h): 4.28
RATIO (5247 (wt) [2]; strain 5247 (wt)): 1
pEC50 (yCM65 (Δpdr1, Δerg4); 48 h): 6.30
RATIO (yCM65 (Δpdr1, Δerg4); strain yCM65 (Δpdr1, Δerg4)): 106
pEC50 (yCM55 (Δerg6); 48 h): 5.64
RATIO (yCM55 (Δerg6); strain yCM55 (Δerg6)): 23
pEC50 (5247 (wt) [3]; Saccharomyces cerevisiae, 48 h): 4.15
pEC50 (yCM30 (Δpdr1); 48 h): 5.60
RATIO (yCM30 (Δpdr1); strain yCM30 (Δpdr1)): 21.2
pIC50 (yCM57 (Δpdr1, Δerg6); Saccharomyces cerevisiae, 48 h, read-out: EC50): 6.70
RATIO (yCM57 (Δpdr1, Δerg6); strain yCM57 (Δpdr1, Δerg6)): 265

CC[C@@]1(O)C(=O)OCc2c1cc1n(c2=O)Cc2cc3ccccc3nc2-1 [Camptothecin]
RATIO [1, 4]: > 100
pEC50 ([1]; Saccharomyces cerevisiae, 48 h): 5.24
pEC50 (5247 (wt) [3]; Saccharomyces cerevisiae, 48 h): < 3.24

CO[C@@H]1[C@@H](OC(N)=O)[C@@H](O)[C@H](Oc2ccc3c(O)c(NC(=O)c4ccc(O)c(CC=C(C)C)c4)c(=O)oc3c2C)OC1(C)C [Novobiocin]
RATIO [1, 4]: 27
pEC50 [1, 5]: 5.05
pEC50 (5247 (wt) [3]; [6]): 3.61

Cc1cc(C)nc(NC(=O)NS(=O)(=O)c2ccccc2C(=O)O)n1 [Sulphomethuron]
RATIO [1, 4]: > 50
pEC50 ([1]; Example 6, strain yCM61 (Δpdr1, Δpdr5, Δsnq2, Δerg6), YNB minimum medium, 28° C., 48 hours, OD 700 nm, read-out: EC50): > 6.89
pEC50 (5247 (wt) [3]; Example 6, strain 5247 (wt), YNB minimum medium, 28° C., 48 hours, OD 700 nm, read-out: EC50): 5.16

COc1cccc2c1C(=O)c1c(O)c3c(c(O)c1C2=O)C[C@@](O)(C(=O)CO)C[C@@H]3O[C@H]1C[C@H](N)[C@H](O)[C@H](C)O1 [DOXORUBICIN, doxorubicin]
pEC50 (5247 (wt) [2]; [7]): 4.39
RATIO (5247 (wt) [2]; strain 5247 (wt)): 1
pEC50 (yCM65 (Δpdr1, Δerg4); [8]): 5.29
RATIO (yCM65 (Δpdr1, Δerg4); strain yCM65 (Δpdr1, Δerg4)): 7.8
RATIO (yCM63 (Δerg4)): 4.4
pEC50 (yCM63 (Δerg4)): 5.04
pEC50 (yCM55 (Δerg6); [9]): 4.92
RATIO (yCM55 (Δerg6); strain yCM55 (Δerg6)): 3.4
pEC50 (yCM30 (Δpdr1); [10]): 4.74
RATIO (yCM30 (Δpdr1); strain yCM30 (Δpdr1)): 2.2
pEC50 (yCM57 (Δpdr1, Δerg6); Saccharomyces cerevisiae, strain yCM57 (Δpdr1, Δerg6), YNB minimum medium, 28° C., 48 hours, OD 700 nm): 5.77
RATIO (yCM57 (Δpdr1, Δerg6); strain yCM57 (Δpdr1, Δerg6)): 23.8

Cc1c2oc3c(C)ccc(C(=O)N[C@@H]4C(=O)N[C@H](C(C)C)C(=O)N5CCC[C@H]5C(=O)N(C)CC(=O)N(C)[C@@H](C(C)C)C(=O)O[C@@H]4C)c3nc-2c(C(=O)N[C@@H]2C(=O)N[C@H](C(C)C)C(=O)N3CCC[C@H]3C(=O)N(C)CC(=O)N(C)[C@@H](C(C)C)C(=O)O[C@@H]2C)c(N)c1=O [ACTINOMYCIN D, actinomycin D] (I: T[dV]P[Sar][NMeV] / II: T[dV]P[Sar][NMeV]; ester I:1-I:C, II:1-II:C; linker I:N-II:N via Actinocin(9to1))
pEC50 (5247 (wt) [2]; [7]): 4.62
RATIO (5247 (wt) [2]; strain 5247 (wt)): 1
pEC50 (yCM65 (Δpdr1, Δerg4); [8]): 5.24
RATIO (yCM65 (Δpdr1, Δerg4); strain yCM65 (Δpdr1, Δerg4)): 4.1
RATIO (yCM63 (Δerg4)): 3.7
pEC50 (yCM63 (Δerg4)): 5.19
pEC50 (yCM55 (Δerg6); [9]): 5.25
RATIO (yCM55 (Δerg6); strain yCM55 (Δerg6)): 4.3
pEC50 (yCM30 (Δpdr1); [10]): 4.90
RATIO (yCM30 (Δpdr1); strain yCM30 (Δpdr1)): 1.9
pIC50 (yCM57 (Δpdr1, Δerg6); Saccharomyces cerevisiae, strain yCM57 (Δpdr1, Δerg6), YNB minimum medium, 28° C., 48 hours, OD 700 nm, read-out: EC50 (the source's name)): 6.12
RATIO (yCM57 (Δpdr1, Δerg6); strain yCM57 (Δpdr1, Δerg6)): 31.9

CC[C@H](C)C(=O)O[C@H]1C[C@@H](C)C=C2C=C[C@H](C)[C@H](CC[C@@H]3C[C@@H](O)CC(=O)O3)[C@H]21 [Lovastatin]
pEC50 [1, 5]: 5.42
RATIO ([1]; s. cerevisiae ycm61, 2880 min): 37
pEC50 (5247 (wt) [3]; [6]): 3.84
